Results: ChEMBL document CHEMBL1201862, “PubChem BioAssay data set” (2004)
Calls of active or inactive are those of the source.

What was measured:
[1] = target: T1, RNA-binding protein pos-1 (Caenorhabditis elegans, UniProt G5EF15); test: inhibitors of POS-1/mex-3 RNA binding, dose response, biochemical, fluorescence polarization (AID 1964);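 also: purified POS-1 fused to maltose binding protein made in E. coli; potency of compounds blocking POS-1 binding to fluorescent RNA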
T1 sequence (G5EF15 whole entry): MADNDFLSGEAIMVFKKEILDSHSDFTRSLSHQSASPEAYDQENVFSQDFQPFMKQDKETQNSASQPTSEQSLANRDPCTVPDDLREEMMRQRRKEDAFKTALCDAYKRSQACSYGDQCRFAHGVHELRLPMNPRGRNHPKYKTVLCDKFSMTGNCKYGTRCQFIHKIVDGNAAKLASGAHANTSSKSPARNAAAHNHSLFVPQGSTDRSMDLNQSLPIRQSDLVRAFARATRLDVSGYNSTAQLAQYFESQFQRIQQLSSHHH

[2] = target: T2, Zinc finger protein mex-5 (Caenorhabditis elegans, UniProt Q9XUB2); test: MEX-5/TCR-2 RNA interaction inhibitors, dose response, biochemical, C. elegans, fluorescence polarization (AID 1960)
T2 sequence (Q9XUB2 whole entry): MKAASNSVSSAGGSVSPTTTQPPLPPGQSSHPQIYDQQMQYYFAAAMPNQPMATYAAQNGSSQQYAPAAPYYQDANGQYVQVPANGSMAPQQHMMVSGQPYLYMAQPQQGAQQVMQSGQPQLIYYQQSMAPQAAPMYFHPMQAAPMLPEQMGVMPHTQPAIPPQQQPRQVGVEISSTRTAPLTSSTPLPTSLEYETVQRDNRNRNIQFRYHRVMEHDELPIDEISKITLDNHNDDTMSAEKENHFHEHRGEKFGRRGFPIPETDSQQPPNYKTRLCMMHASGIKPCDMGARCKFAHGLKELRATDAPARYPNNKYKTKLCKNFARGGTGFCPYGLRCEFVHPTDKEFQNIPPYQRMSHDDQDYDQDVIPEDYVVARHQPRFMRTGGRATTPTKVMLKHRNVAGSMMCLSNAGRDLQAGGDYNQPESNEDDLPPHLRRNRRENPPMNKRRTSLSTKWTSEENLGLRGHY

[3] = target: T3, Polyadenylate-binding protein 1 (Homo sapiens, UniProt P11940); test: PABP1 MLLE–PAM2 interaction inhibitors, dose response, miRNA deadenylation inhibitor project, biochemical, fluorescence polarization, Cy5-PAM2 peptide, secondary (AID 602260); format: functional; settings: read-out: IC50_Mean
T3 sequence (P11940 whole entry): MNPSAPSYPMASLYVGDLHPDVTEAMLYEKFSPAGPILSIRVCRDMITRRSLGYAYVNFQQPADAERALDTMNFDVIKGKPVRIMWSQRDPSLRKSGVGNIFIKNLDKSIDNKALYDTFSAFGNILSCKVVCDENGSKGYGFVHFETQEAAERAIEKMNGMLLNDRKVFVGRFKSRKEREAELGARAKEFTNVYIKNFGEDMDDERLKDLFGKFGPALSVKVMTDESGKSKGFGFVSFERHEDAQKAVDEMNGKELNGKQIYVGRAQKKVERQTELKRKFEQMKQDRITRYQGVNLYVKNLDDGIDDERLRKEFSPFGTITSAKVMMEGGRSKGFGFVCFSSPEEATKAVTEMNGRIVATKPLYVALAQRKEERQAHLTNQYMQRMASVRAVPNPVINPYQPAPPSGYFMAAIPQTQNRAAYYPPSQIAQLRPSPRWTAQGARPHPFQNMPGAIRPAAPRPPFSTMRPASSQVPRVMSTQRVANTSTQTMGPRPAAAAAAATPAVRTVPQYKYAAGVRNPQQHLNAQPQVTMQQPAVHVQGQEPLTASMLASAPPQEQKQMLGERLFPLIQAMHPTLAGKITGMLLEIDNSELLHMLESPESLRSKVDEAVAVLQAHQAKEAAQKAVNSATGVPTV

[4] = target: T3, Polyadenylate-binding protein 1; test: PABP1 MLLE–PAM2 binding inhibitor potency, dose response, biochemical, fluorescence polarization, FITC-PAM2 peptide (AID 602259); format: functional; settings: read-out: IC50_Mean
[5] = target: T4, Histone-lysine N-methyltransferase NSD2 (Homo sapiens, UniProt O96028); format: biochemical
T4 sequence (O96028 whole entry): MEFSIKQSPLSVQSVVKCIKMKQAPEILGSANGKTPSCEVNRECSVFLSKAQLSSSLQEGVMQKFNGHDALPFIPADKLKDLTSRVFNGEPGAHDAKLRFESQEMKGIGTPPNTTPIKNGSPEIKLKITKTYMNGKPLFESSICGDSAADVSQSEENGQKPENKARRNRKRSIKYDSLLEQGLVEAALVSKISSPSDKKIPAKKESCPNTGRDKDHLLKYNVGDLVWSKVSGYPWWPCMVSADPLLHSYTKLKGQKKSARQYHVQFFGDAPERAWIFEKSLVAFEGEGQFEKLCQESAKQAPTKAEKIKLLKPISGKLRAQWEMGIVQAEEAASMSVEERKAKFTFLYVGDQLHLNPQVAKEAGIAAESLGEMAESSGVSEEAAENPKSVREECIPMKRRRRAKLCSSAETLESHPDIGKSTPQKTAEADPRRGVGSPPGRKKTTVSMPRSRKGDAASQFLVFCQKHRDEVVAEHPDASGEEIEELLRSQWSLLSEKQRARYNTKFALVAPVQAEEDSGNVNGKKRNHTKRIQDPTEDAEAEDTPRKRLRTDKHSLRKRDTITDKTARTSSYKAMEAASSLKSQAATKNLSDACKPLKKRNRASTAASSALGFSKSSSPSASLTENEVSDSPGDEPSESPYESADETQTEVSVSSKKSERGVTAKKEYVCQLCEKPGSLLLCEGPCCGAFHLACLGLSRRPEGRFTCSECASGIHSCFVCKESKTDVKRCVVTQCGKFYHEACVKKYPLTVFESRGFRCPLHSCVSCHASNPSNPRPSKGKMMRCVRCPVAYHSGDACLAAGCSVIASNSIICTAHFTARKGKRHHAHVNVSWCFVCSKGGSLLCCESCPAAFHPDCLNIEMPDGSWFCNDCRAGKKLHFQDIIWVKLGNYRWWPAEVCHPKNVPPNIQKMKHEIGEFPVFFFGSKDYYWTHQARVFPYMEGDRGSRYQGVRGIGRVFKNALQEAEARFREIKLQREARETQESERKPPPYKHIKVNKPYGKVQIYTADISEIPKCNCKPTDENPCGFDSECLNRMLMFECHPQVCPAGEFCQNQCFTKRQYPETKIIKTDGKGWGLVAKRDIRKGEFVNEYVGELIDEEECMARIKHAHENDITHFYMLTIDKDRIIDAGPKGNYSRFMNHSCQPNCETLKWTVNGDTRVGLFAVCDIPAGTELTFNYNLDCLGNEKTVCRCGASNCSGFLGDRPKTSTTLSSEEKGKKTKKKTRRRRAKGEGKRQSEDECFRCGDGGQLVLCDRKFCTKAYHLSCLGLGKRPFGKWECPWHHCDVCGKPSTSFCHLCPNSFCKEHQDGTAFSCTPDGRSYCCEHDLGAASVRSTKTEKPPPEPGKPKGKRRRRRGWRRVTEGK

[6] = THP-1 cell cytotoxicity, dose response, cytotoxicity control for Vif-APOBEC3G degradation inhibitor project, THP-1 cells (AID 1117359); format: functional; settings: Human immunodeficiency virus 1, THP-1
[7] = target: Glutathione-S-transferase (Schistosoma japonicum, UniProt Q26513); test: biotin-GST/anti-GST TR-FRET signal inhibitors, dose response, artefact control for Vif-APOBEC3G degradation inhibitor project, biochemical (AID 1117362); format: functional
Glutathione-S-transferase, sequence (Q26513 whole entry): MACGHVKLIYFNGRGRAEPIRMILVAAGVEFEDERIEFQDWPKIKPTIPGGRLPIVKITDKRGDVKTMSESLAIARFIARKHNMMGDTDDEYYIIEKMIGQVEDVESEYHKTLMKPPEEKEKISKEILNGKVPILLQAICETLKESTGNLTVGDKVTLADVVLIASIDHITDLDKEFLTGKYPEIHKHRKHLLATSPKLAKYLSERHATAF

[8] = Shn3 3'UTR reporter inhibitors, dose response, cell-based, Clone20 osteoblasts, firefly luciferase, cherry-picked (AID 624132); format: functional;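 also: firefly luciferase luminescence from reporter carrying the Shn3 3'UTR in osteoblasts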
[9] = HepG2 cell cytotoxicity, dose response, cytotoxicity control for Shn3 inhibitor project, CellTiter-Glo, cherry-picked (AID 624134); format: functional, cell-based
[10] = control 3'UTR Renilla luciferase suppression, dose response, counter-screen for Shn3 inhibitor project, cell-based, Clone20-Shn3RL, cherry-picked (AID 624133); format: functional
[11] = target: Protein Wnt-3a (Mus musculus, UniProt P27467); test: Wnt3a-driven reporter signaling inhibition, dose response, selectivity assay for Gli-SUFU antagonist project, Wnt-LIGHT cells, luminescence (AID 651570); format: functional; settings: read-out: IC50_Mean;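 also: Wnt-LIGHT reporter cells stimulated with conditioned medium from Wnt3a-producing cells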
Protein Wnt-3a, sequence (P27467 whole entry): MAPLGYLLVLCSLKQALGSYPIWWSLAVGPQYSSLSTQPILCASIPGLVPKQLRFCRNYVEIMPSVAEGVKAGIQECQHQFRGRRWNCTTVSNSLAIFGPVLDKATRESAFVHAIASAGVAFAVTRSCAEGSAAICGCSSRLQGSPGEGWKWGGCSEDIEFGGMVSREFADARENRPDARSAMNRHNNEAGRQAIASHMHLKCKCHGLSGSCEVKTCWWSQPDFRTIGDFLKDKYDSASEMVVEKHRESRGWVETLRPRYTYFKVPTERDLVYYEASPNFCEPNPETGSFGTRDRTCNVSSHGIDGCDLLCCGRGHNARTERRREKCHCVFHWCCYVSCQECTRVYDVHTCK

[12] = reduction of Shn3 3'UTR firefly luciferase signal, dose response, Schnurri-3 inhibitor project, cell-based, Clone20 osteoblasts, cherry-pick, set 2 (AID 720490); format: functional;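 also: actives lower the luminescence signal as inhibitors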
[13] = target: Peroxisome proliferator-activated receptor gamma/Nuclear receptor corepressor 2 (Homo sapiens, UniProt P37231+Q9Y618); test: Counterscreen for NR2E3 inverse agonists: TR-FRET-based biochemical high throughput dose response assay to identify inverse agonists of the interaction between peroxisome proliferator-activated receptor gamma (PPARg) and nuclear receptor co-repressor 2 (NCOR2).; format: functional
[14] = target: Photoreceptor-specific nuclear receptor (Homo sapiens, UniProt Q9Y5X4); test: NR2E3 inverse agonists, dose response, biochemical, TR-FRET (AID 463256); format: functional
Photoreceptor-specific nuclear receptor, sequence (Q9Y5X4 whole entry): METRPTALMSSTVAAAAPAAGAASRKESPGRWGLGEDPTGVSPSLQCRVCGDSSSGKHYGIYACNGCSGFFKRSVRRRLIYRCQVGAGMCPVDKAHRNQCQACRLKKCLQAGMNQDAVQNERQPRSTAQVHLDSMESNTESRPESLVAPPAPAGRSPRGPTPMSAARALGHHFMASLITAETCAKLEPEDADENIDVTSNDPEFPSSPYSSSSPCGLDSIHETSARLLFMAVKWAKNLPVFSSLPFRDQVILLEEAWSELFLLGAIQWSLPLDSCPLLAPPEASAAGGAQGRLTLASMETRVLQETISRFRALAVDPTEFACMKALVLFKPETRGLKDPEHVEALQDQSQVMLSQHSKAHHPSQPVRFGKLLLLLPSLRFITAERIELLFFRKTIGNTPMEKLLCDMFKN

[15] = target: Voltage-gated inwardly rectifying potassium channel KCNH2 (Homo sapiens, UniProt Q12809); test: hERG protection from proarrhythmic block, potency, dose response, cell-based, thallium flux (AID 2121); format: ADME
Voltage-gated inwardly rectifying potassium channel KCNH2, sequence (Q12809 whole entry): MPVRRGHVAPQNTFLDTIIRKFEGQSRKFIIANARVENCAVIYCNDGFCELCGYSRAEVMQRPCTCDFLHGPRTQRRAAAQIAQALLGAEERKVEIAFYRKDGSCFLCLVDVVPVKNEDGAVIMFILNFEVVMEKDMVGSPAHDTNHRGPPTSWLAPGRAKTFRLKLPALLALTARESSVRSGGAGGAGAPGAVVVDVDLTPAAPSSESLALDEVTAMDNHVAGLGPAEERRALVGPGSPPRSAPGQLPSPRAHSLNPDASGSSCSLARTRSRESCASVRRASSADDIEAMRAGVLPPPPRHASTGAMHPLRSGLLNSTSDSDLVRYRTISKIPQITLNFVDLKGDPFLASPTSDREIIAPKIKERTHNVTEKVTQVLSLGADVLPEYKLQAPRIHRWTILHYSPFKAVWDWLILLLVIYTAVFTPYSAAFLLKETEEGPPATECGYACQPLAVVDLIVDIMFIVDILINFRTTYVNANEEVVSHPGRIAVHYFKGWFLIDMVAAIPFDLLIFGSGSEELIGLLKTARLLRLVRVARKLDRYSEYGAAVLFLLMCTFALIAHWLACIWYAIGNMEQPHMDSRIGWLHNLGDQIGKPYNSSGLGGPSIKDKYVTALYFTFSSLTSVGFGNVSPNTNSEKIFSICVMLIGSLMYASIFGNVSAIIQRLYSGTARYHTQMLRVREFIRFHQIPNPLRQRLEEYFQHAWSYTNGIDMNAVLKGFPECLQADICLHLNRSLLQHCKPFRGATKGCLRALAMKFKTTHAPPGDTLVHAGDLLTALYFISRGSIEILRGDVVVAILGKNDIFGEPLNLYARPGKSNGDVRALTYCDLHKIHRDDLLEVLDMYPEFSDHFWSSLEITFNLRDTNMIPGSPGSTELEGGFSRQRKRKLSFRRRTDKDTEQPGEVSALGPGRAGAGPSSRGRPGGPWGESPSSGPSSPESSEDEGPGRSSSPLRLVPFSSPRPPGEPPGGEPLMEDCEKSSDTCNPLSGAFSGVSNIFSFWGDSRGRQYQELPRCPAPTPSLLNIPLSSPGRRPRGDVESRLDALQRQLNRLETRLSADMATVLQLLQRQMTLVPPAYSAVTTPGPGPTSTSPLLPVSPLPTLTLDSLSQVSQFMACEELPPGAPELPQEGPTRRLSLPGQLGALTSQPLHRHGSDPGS

[16] = target: Mannose-6-phosphate isomerase (Homo sapiens, UniProt P34949); test: human PMI inhibitors, high substrate, primary screen, biochemical, fluorescence intensity, high mannose 6-phosphate (AID 1220)
Mannose-6-phosphate isomerase, sequence (P34949 whole entry): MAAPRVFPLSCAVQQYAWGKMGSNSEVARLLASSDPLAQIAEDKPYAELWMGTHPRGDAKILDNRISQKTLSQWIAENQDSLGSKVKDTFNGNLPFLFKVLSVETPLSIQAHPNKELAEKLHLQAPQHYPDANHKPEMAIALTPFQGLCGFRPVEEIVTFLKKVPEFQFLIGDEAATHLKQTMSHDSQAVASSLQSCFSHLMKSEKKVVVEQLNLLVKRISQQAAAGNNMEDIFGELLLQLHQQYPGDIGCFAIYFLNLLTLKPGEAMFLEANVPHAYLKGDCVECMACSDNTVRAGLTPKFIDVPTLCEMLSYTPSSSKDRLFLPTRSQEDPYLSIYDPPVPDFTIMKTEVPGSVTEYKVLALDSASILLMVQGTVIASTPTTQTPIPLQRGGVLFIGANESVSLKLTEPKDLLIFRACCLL

[17] = cells; format: functional, cell-based
[18] = target: T5, Nuclear receptor subfamily 0 group B member 1 (Homo sapiens, UniProt P51843); format: functional, cell-based;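 also: HEK293T cells transfected with SF-1 and DAX-1 plus StAR promoter luciferase reporter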
T5 sequence (P51843 whole entry): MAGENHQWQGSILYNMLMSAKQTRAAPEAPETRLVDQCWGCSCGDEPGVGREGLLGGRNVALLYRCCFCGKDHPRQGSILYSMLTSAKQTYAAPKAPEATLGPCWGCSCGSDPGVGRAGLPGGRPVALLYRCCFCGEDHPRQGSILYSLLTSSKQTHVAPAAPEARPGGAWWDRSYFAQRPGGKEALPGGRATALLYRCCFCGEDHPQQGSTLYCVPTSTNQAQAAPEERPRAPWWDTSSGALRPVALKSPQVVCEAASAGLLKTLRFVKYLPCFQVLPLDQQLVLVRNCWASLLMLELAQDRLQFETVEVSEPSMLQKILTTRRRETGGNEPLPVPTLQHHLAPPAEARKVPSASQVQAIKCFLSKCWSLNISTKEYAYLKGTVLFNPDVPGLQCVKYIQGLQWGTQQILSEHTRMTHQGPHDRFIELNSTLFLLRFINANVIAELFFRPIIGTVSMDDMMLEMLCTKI

[19] = target: T6, Oxysterols receptor LXR-beta (Homo sapiens, UniProt P55055); format: functional, cell-based;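 also: Cell-based luminescence dose-response assay of agonist activity at LXR, run as a confirmatory counterscreen to a daf-12 agonist screen; HEK293 cells with Gal4-LXR fusion and GAL4-driven luciferase reporter; agonist potency from rising luciferase signal of a Gal4-LXR reporter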
T6 sequence (P55055 whole entry): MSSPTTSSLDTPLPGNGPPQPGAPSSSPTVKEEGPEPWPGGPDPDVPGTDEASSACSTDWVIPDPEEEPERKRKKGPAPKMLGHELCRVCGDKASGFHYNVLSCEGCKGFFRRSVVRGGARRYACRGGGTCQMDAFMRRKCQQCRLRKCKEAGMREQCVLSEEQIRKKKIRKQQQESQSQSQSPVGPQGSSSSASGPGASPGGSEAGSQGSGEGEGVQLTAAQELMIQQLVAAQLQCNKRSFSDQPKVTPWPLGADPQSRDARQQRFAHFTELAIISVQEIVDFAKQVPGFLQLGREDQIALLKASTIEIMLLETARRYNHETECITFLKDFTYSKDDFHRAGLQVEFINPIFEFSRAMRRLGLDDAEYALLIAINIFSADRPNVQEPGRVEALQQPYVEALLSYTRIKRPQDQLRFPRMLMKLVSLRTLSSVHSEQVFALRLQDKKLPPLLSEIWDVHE

[20] = cells

Question: Which EC50 [1] does the source give for CCn1c(C)cc(=S)c2ccccc21 here?
Answer: > 300 µM (not active)

Question: What about the EC50 [2] of the same compound?
Answer: > 300 µM (not active)

Question: What about the IC50 [3] of the same compound?
Answer: > 66 µM (inactive)

Question: And the IC50 [4]?
Answer: > 66 µM (inactive)

Question: And the AC50 [5]?
Answer: 17 µM (active)

Question: And the CC50 [6]?
Answer: > 40 µM (active)

Question: What about the IC50 [7] of the same compound?
Answer: > 100 µM (active)

Question: Which AC50 [8] does the source give for CCN(CC)S(=O)(=O)c1ccc(S(=O)(=O)Nc2c(C)nn(C)c2C)cc1 here?
Answer: 2.24 µM (active)

Question: And the AC50 [9]?
Answer: 36.6 µM (active)

Question: What about the AC50 [10] of the same compound?
Answer: 27.4 µM (active)

Question: And the IC50 [11]?
Answer: 8.16 µM (active)

Question: What about the AC50 [12] of the same compound?
Answer: 1.06 µM (active)

Question: Which EC50 [1] does the source give for CC(=O)c1ccc(C(=O)Nc2sc3c(c2C(N)=O)CCN(Cc2ccccc2)C3)cc1 here?
Answer: > 300 µM (not active)

Question: What about the EC50 [2] of the same compound?
Answer: > 300 µM (inconclusive)

Question: What about the IC50 [13] of the same compound?
Answer: 4.93 µM (active)

Question: What about the IC50 [14] of the same compound?
Answer: 6 µM (active)

Question: With CCOc1ccccc1NC(=S)NC(=O)c1ccco1 as the compound, how does the EC50 [15] read?
Answer: 1.25 µM (active)

Question: With CNC(=O)c1ccc(NC(=O)CN2c3cccc4cccc(c34)S2(=O)=O)cc1 as the compound, how does the EC50 [15] read?
Answer: 7.62 µM (active)

Question: For COc1ccc(NC(=O)N2c3ccc(OC)cc3C(C)=CC2(C)C)cc1, which IC50 [16] is on record?
Answer: > 50 µM (not active)

Question: And the CC50 [6]?
Answer: > 40 µM (active)

Question: And the IC50 [7]?
Answer: > 100 µM (active)

Question: Which results are given for O=C(Nc1ccccn1)c1sc2cccc(F)c2c1Cl?
Answer: IC50 [17]: > 67.6 µM (inactive); IC50 [18]: > 0.834 µM (active); EC50 [19]: > 67.6 µM (inactive); EC50 [20]: > 67.6 µM (inactive)
